Measured values from patent US20250154472A1, “Culture Medium for Expanding Breast Epithelial Stem Cells” (Koninklijke Nederlandse Akademie Van Wetenschappen, priority 2014, published 2025).

Key:
Type in all cases: cell-based, human
[1] = system: mammary tumor organoid line W859T; assay: Low throughput drug screen, cell viability (CellTiter-Glo 2.0), W859T; conditions: 7 days, 1 nM-30 μM, 96-well
Procedure: (§1) Organoids were photographed every 3-4 days (FIG. 8) and cell viability measured at day 7 using the CellTiter-Glo 2.0 assay (G9241, Promega) (FIG. 9).
(§2) All three organoid lines respond to Iressa at concentrations ˜10 μM indicating a dependence on EGFR signaling. […] Mammary tumor organoids are suitable for cell viability based low throughput drug screens in a 96-well format. We are currently testing the assay in a 384-well plate format which has been successfully established for colon cancer organoids.

[2] = system: mammary tumor organoid line W854T; assay: Low throughput drug screen, cell viability (CellTiter-Glo 2.0), W854T; conditions: 7 days, 1 nM-30 μM, 96-well
Procedure: as §1, §2

[3] = system: mammary tumor organoid line W855T; assay: Low throughput drug screen, cell viability (CellTiter-Glo 2.0), W855T; conditions: 7 days
Procedure: as §1, §2

[4] = system: mammary tumor organoid line W854T; assay: Organoid growth in medium containing Nutlin-3; conditions: 5 μM Nutlin-3

Row | Structure (SMILES) | concentration at which organoids respond (growth/viability) [1] | concentration at which organoids respond (growth/viability) [2] | growth inhibition at concentrations up 30 μM [3] | growth in medium containing the p53 stabilizer [4] | concentration at which organoids respond (growth/viability) ([3]; 1 nM-30 μM, 96-well)
1 | COc1ccc(C2=N[C@@H](c3ccc(Cl)cc3)[C@@H](c3ccc(Cl)cc3)N2C(=O)N2CCNC(=O)C2)c(OC(C)C)c1 [Nutlin-3] | > 30 µM | > 30 µM | perhaps the exception | readily grew | 
2 | COc1cc2ncnc(Nc3ccc(F)c(Cl)c3)c2cc1OCCCN1CCOCC1 [Iressa] | ~10 µM | ~10 µM |  |  | ~10 µM
